Experimental findings from patent US11884683B2, “Tricyclic heterocycle compounds useful as HIV integrase inhibitors” (Merck Sharp & Dohme LLC, priority 2018, dated 2024) are described below.

One assay relates to HIV-1 (H9/IIIB strain). In words: Multiple round HIV-1 infection assay in MT4-GFP cells (wild type cell assay, Viking). It is filed as cell-based. The note with it: 0% NHS condition; MT4-GFP cells infected with HIV-1 H9/IIIB; inhibition of reproductive ratio R0, ~48 h and ~72 h post-infection; read-out: WILD TYPE CELL ASSAY Viking IP (0% NHS). As to the method:
Assessing Antiviral Potency in a Multiple Round HIV-1 Infection Assay
The antiviral activity of the Examples herein was assessed in an assay that measures the rate of replication of HIV in cell culture, and performed according to the following procedure. HIV-1 replication was monitored using MT4-gag-GFP clone D3 (hereafter designated MT4-GFP), which are MT-4 cells modified to harbor a GFP reporter gene, the expression of which is dependent on the HIV-1 expressed proteins tat and rev. Productive infection of an MT4-GFP cell with HIV-1 results in GFP expression approximately 24 h post-infection. MT4-GFP cells were maintained at 37° C./5% CO2/90% relative humidity in RPMI 1640 supplemented with 10% fetal bovine serum, 100 U/ml penicillin/streptomycin, and 400 μg/ml G418 to maintain the reporter gene. For infections, MT4-GFP cells were placed in the same medium lacking G418 and infected overnight with HIV-1 (H9/IIIB strain) virus at an approximate multiplicity of infection of 0.01 in the same incubation conditions. Cells were then washed and re-suspended in either RPMI 1640 at 2×10^5 cells/mL (0% NHS condition) or 100% normal human serum (NHS) at 2×10^5 cells/mL (100% NHS condition). Compound plates were prepared by dispensing compounds dissolved in DMSO into wells of 384 well poly-D-lysine-coated plates (0.2 μl/well) using an ECHO acoustic dispenser. Each compound was tested in a 10-point serial 3-fold dilution (typical final concentrations: 1050 nM-0.05 nM for 0% NHS condition or […]-2.13 nM for 100% NHS condition). Controls included no inhibitor (DMSO only) and a combination of three antiviral agents (efavirenz, indinavir, an in-house integrase strand transfer inhibitor at final concentrations of […] each). Cells were added ([…]) to compound plates and the infected cells were maintained at 37° C./5% CO2/90% relative humidity.
Infected cells were quantified at two time points, ˜48 h and ˜72 h post-infection, by counting the number of green cells in each well using an Acumen eX3 scanner. The increase in the number of green cells over ˜24 h period gives the reproductive ratio, RO, which is typically 5-15 and has been shown experimentally to be in logarithmic phase (data not shown). Inhibition of R0 is calculated for each well, and IC50s determined by non-linear 4-parameter curve fitting.
As to `COCCN1CN2CC(O)c3c(C(=O)NCc4cccc(Cl)c4F)c(=O)c(O)c(n32)C1=O` (stereo not drawn) [Compound 42], the IC50 was 1.9 nM. Still for that read-out and setting: the value for `COCCN1CN2CC(O)c3c(C(=O)NCc4c(F)ccc(Cl)c4F)c(=O)c(O)c(n32)C1=O` (stereo not drawn) [Compound 44] was 3.1 nM. Regarding `COCCN1CN2CC(O)c3c(C(=O)NCc4c(F)cc(F)cc4F)c(=O)c(O)c(n32)C1=O` (stereo not drawn) [Compound 46], the IC50 came out at 3.7 nM. Still for that read-out and setting: the value for `CCN1CN2CC(O)c3c(C(=O)NCc4c(F)ccc(F)c4F)c(=O)c(O)c(n32)C1=O` (stereo not drawn) [Compound 48] was 2.3 nM.

In the case of `CCN1CN2CC(O)c3c(C(=O)NCc4ccc(F)c(Cl)c4F)c(=O)c(O)c(n32)C1=O` (stereo not drawn) [Compound 49], the IC50 amounted to 2 nM. Regarding `CCN1CN2CC(O)c3c(C(=O)NCc4ccc(F)c(Cl)c4F)c(=O)c(O)c(n32)C1=O` (stereo not drawn) [Compound 50], the IC50 is 4.2 nM.

For the molecule `CCN1CN2CC(O)c3c(C(=O)NCc4cccc(Cl)c4F)c(=O)c(O)c(n32)C1=O` (stereo not drawn) [Compound 51], the IC50 turned out to be 2.1 nM. For the molecule `CCN1CN2CC(O)c3c(C(=O)NCc4cccc(Cl)c4F)c(=O)c(O)c(n32)C1=O` (stereo not drawn) [Compound 52], the IC50 stood at 8.1 nM. Take `CCN1CN2CC(O)c3c(C(=O)NCc4c(F)ccc(Cl)c4F)c(=O)c(O)c(n32)C1=O` (stereo not drawn) [Compound 53]: the IC50 stood at 1.1 nM. For `CCN1CN2CC(O)c3c(C(=O)NCc4c(F)ccc(Cl)c4F)c(=O)c(O)c(n32)C1=O` (stereo not drawn) [Compound 54], the IC50 turned out to be 4.7 nM. Same read-out and setting: the value for `CCN1CN2CC(O)c3c(C(=O)NCc4c(F)cc(F)cc4F)c(=O)c(O)c(n32)C1=O` (stereo not drawn) [Compound 56] was 2.9 nM. The same measure, in the same setting: the value for `CCN1CN2CC(O)c3c(C(=O)NCc4ccc(F)cc4F)c(=O)c(O)c(n32)C1=O` (stereo not drawn) [Compound 58] was 4 nM; that for `CCN1CN2CC(O)c3c(C(=O)NCc4ccc(F)c(F)c4F)c(=O)c(O)c(n32)C1=O` (stereo not drawn) [Compound 60] was 2.8 nM. Turning to `CCN1CN2CC(O)c3c(C(=O)NCc4ccc(F)cc4)c(=O)c(O)c(n32)C1=O` (stereo not drawn) [Compound 61], the IC50 stood at 1.9 nM. Consider `CCN1CN2CC(O)c3c(C(=O)NCc4ccc(F)cc4)c(=O)c(O)c(n32)C1=O` (stereo not drawn) [Compound 62], for which the IC50 stood at 5.2 nM.

Take `CCN1CN2CC(O)c3c(C(=O)NCc4ccccc4F)c(=O)c(O)c(n32)C1=O` (stereo not drawn) [Compound 63]: the IC50 was found to be 1.6 nM. Take `CCN1CN2CC(O)c3c(C(=O)NCc4ccccc4F)c(=O)c(O)c(n32)C1=O` (stereo not drawn) [Compound 64]: the IC50 came to 5.9 nM. In the case of `CCN1C(=O)c2c(O)c(=O)c(C(=O)NCc3c(F)ccc(Cl)c3F)c3n2N(CC3O)C1C` (stereo not drawn) [Compound 72], the IC50 was found to be 2.3 nM. Same read-out and setting: the value for `CCN1C(=O)c2c(O)c(=O)c(C(=O)NCc3ccc(C(F)F)cc3)c3n2N(CC3O)C1C` (stereo not drawn) [Compound 75] was 35 nM. Same read-out and setting: the value for `CCN1C(=O)c2c(O)c(=O)c(C(=O)NCc3ccc(C(F)F)cc3)c3n2N(CC3O)C1C` (stereo not drawn) [Compound 76] was 88 nM. On to `CCN1C(=O)c2c(O)c(=O)c(C(=O)NCc3ccc(C(F)(F)F)cc3)c3n2N(CC3O)C1C` (stereo not drawn) [Compound 79], for which the IC50 amounted to 103 nM. For `CCN1C(=O)c2c(O)c(=O)c(C(=O)NCc3ccc(C(F)(F)F)cc3)c3n2N(CC3O)C1C` (stereo not drawn) [Compound 80], the IC50 turned out to be 219 nM. In the case of `CCN1C(=O)c2c(O)c(=O)c(C(=O)NCc3c(F)ccc(F)c3F)c3n2N(CC3O)C1C` (stereo not drawn) [Compound 84], the IC50 was 2.1 nM. Turning to `CCN1C(=O)c2c(O)c(=O)c(C(=O)NCc3ccc(F)cc3)c3n2N(CC3O)C1C` (stereo not drawn) [Compound 88], the IC50 worked out at 2.9 nM. On the same count and under the same terms, the value for `CCN1C(=O)c2c(O)c(=O)c(C(=O)NCc3ccc(F)cc3F)c3n2N(CC3O)C1C` (stereo not drawn) [Compound 92] was 1.7 nM; that for `CN1C(=O)c2c(O)c(=O)c(C(=O)NCc3ccc(F)cc3F)c3n2N(CC3O)C12CCOC2` (stereo not drawn) [Compound 114] was 1.9 nM. Same read-out and setting: the value for `CN1C(=O)c2c(O)c(=O)c(C(=O)NCc3c(F)ccc(Cl)c3F)c3n2N(CC3O)C12CCOC2` (stereo not drawn) [Compound 118] was 1.6 nM.

Still in this assay, the particulars now being: Human immunodeficiency virus 1, IIIB, 0% NHS condition; MT4-GFP cells infected with HIV-1 H9/IIIB; inhibition of reproductive ratio R0, ~48 h and ~72 h post-infection; read-out: WILD TYPE CELL ASSAY Viking IP (0% NHS).
As for `COCCN1CN2CC(O)c3c(C(=O)NCc4c(F)ccc(Cl)c4F)c(=O)c(O)c(n32)C1=O` (stereo not drawn) [Compound 43], the IC50 turned out to be 3.4 nM. Same read-out and setting: the value for `COCCN1CN2CC(O)c3c(C(=O)NCc4c(F)cc(F)cc4F)c(=O)c(O)c(n32)C1=O` (stereo not drawn) [Compound 45] was 2.5 nM; that for `CCN1CN2CC(O)c3c(C(=O)NCc4c(F)ccc(F)c4F)c(=O)c(O)c(n32)C1=O` (stereo not drawn) [Compound 47] was 2.8 nM. Same read-out and setting: the value for `CCN1CN2CC(O)c3c(C(=O)NCc4c(F)cc(F)cc4F)c(=O)c(O)c(n32)C1=O` (stereo not drawn) [Compound 55] was 1.6 nM. The same measure, in the same setting: the value for `CCN1CN2CC(O)c3c(C(=O)NCc4ccc(F)cc4F)c(=O)c(O)c(n32)C1=O` (stereo not drawn) [Compound 57] was 2.4 nM; that for `CCN1CN2CC(O)c3c(C(=O)NCc4ccc(F)c(F)c4F)c(=O)c(O)c(n32)C1=O` (stereo not drawn) [Compound 59] was 2.5 nM; that for `CCN1C(=O)c2c(O)c(=O)c(C(=O)NCc3c(F)ccc(Cl)c3F)c3n2N(CC3O)C1C` (stereo not drawn) [Compound 71] was 3.7 nM. Consider `CCN1C(=O)c2c(O)c(=O)c(C(=O)NCc3c(F)ccc(F)c3F)c3n2N(CC3O)C1C` (stereo not drawn) [Compound 83], for which the IC50 was determined as 2.5 nM.

Consider `CCN1C(=O)c2c(O)c(=O)c(C(=O)NCc3ccc(F)cc3)c3n2N(CC3O)C1C` (stereo not drawn) [Compound 87], for which the IC50 was 4.2 nM. The same measure, in the same setting: the value for `CCN1C(=O)c2c(O)c(=O)c(C(=O)NCc3ccc(F)cc3F)c3n2N(CC3O)C1C` (stereo not drawn) [Compound 91] was 3.3 nM; that for `CN1C(=O)c2c(O)c(=O)c(C(=O)NCc3ccc(F)cc3F)c3n2N(CC3O)C12CCOC2` (stereo not drawn) [Compound 113] was 1.5 nM. With `CN1C(=O)c2c(O)c(=O)c(C(=O)NCc3c(F)ccc(Cl)c3F)c3n2N(CC3O)C12CCOC2` (stereo not drawn) [Compound 117], the IC50 was 1.8 nM.
